Data from ChEMBL document CHEMBL1201862, “PubChem BioAssay data set” (2004).
Values belong to the molecule of their own block, whether it stands above or below them. Calls of active or inactive are those of the source.

Experiments:
[1] = cytotoxicity in HEK-293T cells, dose response, cytotoxicity control for TCR NF-kB inhibitor project, luminescence, T-cell screen hits (AID 489026); assay type: functional, cell-based;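 note: cells exposed to compound about 14 hours before the viability readout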
[2] = Vero cell cytotoxicity, dose response, cytotoxicity control for Vif-APOBEC3G degradation inhibitor project, Vero cells (AID 1117358); assay type: functional; conditions: Human immunodeficiency virus 1, Vero
[3] = test system: J774.A1; assay: Confirmation of image-based Screening Assay for Inhibitors of Phagocytosis. [Related pubchem assays (depositor defined):AID1029, AID1643]; assay type: functional, cell-based; conditions: Mus musculus
[4] = target: T1, Troponin, cardiac muscle (Homo sapiens, UniProt P19429+P45379+P63316); assay: Fluorescence-based biochemical high throughput dose response assay for activators of the calcium sensitivity of cardiac Regulated Thin Filaments (RTF). [Related pubchem assays (depositor defined):AID493008, AID493018, AID504382, AID504383]; assay type: protein-complex assay
[5] = ADAM10 protease inhibitors, dose response, selectivity assay for ADAM17 exosite inhibitor project, biochemical, FRET peptide substrate, recombinant human ADAM10 (AID 743259);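 note: ADAM10 enzyme cleaving a FRET peptide substrate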
[6] = target: T2, Zinc finger protein mex-5 (Caenorhabditis elegans, UniProt Q9XUB2); assay: MEX-5/TCR-2 RNA interaction inhibitors, dose response, biochemical, C. elegans, fluorescence polarization (AID 1960)
T2 sequence (Q9XUB2 whole entry): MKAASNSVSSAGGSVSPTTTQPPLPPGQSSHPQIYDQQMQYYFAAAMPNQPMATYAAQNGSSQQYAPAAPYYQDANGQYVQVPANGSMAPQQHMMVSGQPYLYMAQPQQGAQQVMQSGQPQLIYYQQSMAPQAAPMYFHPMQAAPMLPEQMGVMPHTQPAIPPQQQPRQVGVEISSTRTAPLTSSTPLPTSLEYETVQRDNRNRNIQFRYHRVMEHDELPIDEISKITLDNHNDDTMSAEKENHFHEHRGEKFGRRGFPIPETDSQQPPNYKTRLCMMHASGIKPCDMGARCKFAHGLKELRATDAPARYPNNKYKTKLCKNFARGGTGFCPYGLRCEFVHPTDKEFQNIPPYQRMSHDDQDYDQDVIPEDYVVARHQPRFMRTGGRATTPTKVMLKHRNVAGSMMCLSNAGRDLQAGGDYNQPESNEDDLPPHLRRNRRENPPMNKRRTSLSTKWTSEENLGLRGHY

[7] = target: 1-phosphatidylinositol 4,5-bisphosphate phosphodiesterase beta-3 (Homo sapiens, UniProt Q01970); assay: Fluorescence-based biochemical high throughput dose response assay to identify inhibitors of phospholipase C isozymes (PLC-B3).
Sequence of 1-phosphatidylinositol 4,5-bisphosphate phosphodiesterase beta-3 (Q01970 whole entry): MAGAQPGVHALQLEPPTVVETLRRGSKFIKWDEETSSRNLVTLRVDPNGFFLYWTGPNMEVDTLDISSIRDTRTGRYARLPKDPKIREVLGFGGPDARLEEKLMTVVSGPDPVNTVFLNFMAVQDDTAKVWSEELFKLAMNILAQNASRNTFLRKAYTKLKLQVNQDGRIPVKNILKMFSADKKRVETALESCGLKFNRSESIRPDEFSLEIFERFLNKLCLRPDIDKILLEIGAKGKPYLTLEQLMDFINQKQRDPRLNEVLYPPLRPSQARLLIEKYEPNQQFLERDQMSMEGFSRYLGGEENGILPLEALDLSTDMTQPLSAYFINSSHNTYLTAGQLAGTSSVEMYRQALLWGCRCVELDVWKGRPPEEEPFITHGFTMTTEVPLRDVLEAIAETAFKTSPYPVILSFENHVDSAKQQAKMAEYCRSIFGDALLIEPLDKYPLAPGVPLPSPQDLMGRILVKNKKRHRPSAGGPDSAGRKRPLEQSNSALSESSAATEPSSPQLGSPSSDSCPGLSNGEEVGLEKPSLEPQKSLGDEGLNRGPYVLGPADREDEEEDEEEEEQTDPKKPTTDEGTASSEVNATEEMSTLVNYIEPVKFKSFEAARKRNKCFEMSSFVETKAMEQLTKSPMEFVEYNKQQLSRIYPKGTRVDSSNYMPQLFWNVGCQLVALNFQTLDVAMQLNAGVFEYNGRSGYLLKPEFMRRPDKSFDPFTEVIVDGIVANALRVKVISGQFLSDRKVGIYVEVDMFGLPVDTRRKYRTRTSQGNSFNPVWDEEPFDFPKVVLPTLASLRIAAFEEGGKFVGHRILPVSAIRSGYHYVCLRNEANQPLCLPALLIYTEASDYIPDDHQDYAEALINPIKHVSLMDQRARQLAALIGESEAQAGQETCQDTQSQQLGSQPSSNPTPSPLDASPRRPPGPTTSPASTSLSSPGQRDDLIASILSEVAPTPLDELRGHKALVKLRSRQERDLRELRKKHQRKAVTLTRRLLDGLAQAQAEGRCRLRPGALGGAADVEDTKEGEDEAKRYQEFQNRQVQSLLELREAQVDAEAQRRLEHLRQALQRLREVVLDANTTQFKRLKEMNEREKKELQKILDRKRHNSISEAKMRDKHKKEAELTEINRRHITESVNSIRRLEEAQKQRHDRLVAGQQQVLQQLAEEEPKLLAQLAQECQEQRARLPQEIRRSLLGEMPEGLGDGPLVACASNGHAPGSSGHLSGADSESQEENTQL

[8] = target: Tyrosyl-DNA phosphodiesterase 2 (Homo sapiens, UniProt O95551); assay: human TDP2 enzyme inhibitors, dose response, biochemical, epi absorbance, IC50 (AID 743297)
Sequence of Tyrosyl-DNA phosphodiesterase 2 (O95551 whole entry): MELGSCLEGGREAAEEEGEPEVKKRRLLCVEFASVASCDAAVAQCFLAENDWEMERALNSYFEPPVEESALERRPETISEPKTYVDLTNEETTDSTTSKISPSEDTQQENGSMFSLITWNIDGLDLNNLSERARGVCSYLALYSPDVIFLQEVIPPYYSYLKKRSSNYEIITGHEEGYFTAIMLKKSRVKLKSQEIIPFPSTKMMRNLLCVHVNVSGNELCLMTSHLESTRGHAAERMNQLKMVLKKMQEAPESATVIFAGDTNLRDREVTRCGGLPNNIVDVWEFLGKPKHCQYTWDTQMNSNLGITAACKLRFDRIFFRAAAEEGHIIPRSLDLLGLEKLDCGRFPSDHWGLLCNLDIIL

[9] = target: 1-phosphatidylinositol 4,5-bisphosphate phosphodiesterase gamma-1 (Homo sapiens, UniProt P19174); assay: Counterscreen for inhibitors of phospholipase C isozymes (PLC-B3): Fluorescence-based biochemical high throughput dose response assay to identify inhibitors of phospholipase C isozymes (PLC-gamma1).
Sequence of 1-phosphatidylinositol 4,5-bisphosphate phosphodiesterase gamma-1 (P19174 whole entry): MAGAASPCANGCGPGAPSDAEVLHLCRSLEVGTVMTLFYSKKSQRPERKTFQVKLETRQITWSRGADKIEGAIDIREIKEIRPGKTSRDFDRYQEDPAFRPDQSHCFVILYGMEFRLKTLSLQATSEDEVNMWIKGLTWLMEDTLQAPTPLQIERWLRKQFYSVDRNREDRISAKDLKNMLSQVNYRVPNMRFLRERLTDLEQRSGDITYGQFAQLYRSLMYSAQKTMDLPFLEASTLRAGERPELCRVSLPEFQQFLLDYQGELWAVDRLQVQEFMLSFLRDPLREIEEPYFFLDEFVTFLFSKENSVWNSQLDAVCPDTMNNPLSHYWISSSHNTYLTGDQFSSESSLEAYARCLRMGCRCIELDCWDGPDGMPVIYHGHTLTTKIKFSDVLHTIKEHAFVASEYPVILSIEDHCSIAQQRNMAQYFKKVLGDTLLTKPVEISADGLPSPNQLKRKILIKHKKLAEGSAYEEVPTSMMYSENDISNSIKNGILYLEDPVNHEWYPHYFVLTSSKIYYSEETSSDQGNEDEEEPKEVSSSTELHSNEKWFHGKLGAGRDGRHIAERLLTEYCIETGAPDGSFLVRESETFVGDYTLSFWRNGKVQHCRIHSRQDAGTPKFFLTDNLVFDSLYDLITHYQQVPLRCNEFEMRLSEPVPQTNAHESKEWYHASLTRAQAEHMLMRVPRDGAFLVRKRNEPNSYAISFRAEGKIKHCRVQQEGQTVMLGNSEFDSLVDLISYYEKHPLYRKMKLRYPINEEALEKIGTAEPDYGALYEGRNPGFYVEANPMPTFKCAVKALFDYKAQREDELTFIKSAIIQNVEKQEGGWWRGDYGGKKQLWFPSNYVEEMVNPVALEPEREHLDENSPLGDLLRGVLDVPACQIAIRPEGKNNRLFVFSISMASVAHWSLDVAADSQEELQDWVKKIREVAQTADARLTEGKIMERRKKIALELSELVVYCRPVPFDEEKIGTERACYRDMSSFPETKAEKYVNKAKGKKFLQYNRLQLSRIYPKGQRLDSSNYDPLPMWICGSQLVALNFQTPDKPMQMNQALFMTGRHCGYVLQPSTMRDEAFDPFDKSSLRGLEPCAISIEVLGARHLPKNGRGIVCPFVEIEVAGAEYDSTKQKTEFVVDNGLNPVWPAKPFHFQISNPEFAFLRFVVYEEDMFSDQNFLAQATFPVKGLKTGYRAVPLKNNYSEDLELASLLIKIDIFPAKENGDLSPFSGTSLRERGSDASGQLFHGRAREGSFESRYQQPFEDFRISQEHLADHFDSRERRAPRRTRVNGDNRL

[10] = target: T1, Troponin, cardiac muscle; assay: inhibitors of cardiac thin filament calcium sensitivity, dose response, biochemical, fluorescence, cardiac regulated thin filaments, triplicate IC50 (AID 504742); assay type: protein-complex assay
[11] = target: Disintegrin and metalloproteinase domain-containing protein 17 (Homo sapiens, UniProt P78536); assay: exosite inhibitors of ADAM17, dose response, biochemical (AID 743260)
Sequence of Disintegrin and metalloproteinase domain-containing protein 17 (P78536 whole entry, the tested form may be a part): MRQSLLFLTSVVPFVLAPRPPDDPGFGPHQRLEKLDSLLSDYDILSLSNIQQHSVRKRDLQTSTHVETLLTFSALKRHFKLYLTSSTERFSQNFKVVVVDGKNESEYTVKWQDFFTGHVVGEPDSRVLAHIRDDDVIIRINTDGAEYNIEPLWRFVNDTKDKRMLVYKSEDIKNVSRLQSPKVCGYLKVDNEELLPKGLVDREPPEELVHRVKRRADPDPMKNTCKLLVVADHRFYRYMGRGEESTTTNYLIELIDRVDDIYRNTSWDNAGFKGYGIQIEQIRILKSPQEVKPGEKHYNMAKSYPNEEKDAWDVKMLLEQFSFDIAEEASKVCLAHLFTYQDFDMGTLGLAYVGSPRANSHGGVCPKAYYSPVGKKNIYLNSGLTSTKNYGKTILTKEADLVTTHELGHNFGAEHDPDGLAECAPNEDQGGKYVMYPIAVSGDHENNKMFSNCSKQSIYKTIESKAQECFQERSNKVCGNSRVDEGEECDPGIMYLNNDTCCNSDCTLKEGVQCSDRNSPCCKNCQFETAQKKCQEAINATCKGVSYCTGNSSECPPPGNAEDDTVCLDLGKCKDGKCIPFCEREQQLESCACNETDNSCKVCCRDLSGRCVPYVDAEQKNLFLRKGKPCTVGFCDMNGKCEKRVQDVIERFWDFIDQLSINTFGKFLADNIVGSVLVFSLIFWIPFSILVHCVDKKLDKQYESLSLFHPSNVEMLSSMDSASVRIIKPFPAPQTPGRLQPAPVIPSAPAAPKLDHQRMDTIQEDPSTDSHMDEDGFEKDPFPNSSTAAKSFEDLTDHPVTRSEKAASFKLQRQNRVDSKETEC

[12] = target: T3, RNA-binding protein pos-1 (Caenorhabditis elegans, UniProt G5EF15); assay: inhibitors of POS-1/mex-3 RNA binding, dose response, biochemical, fluorescence polarization (AID 1964);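 note: purified POS-1 fused to maltose binding protein made in E. coli; potency of compounds blocking POS-1 binding to fluorescent RNA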
T3 sequence (G5EF15 whole entry): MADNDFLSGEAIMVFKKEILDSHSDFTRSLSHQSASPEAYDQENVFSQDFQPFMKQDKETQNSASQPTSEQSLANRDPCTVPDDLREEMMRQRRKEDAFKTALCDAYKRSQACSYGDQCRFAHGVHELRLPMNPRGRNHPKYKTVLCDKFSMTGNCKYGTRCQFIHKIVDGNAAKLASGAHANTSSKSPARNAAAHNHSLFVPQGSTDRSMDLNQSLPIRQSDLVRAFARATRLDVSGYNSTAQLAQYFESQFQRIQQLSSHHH

[13] = target: T4, Kappa-type opioid receptor (Homo sapiens, UniProt P41145); assay: SAR analysis of Antagonists of the Kappa Opioid Receptor (KOR) using an Image-Based Assay - Set 4. [Related pubchem assays (depositor defined):AID1777, AID1785]; assay type: functional
T4 sequence (P41145 whole entry): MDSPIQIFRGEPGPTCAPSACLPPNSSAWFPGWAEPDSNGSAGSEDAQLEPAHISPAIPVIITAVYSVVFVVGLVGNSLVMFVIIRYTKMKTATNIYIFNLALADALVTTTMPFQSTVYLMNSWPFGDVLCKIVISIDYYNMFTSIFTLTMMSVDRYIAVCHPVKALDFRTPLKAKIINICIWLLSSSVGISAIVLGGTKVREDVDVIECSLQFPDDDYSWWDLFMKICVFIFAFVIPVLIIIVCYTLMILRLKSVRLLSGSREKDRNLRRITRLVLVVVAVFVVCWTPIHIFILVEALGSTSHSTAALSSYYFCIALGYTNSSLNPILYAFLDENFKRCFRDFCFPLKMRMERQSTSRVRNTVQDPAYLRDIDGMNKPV

[14] = target: T4, Kappa-type opioid receptor; assay: SAR analysis of small molecule antagonists of the kappa opioid receptor via a luminescent beta-arrestin assay - Set 3. [Related pubchem assays (depositor defined):AID1777, AID1778, AID1785, AID1786, AID1966, AID2133, AID2136, AID2285, AID2495]; assay type: functional
[15] = target: Mu-type opioid receptor (Homo sapiens, UniProt P35372); assay: SAR Analysis of Antagonists of the MOR Receptor using an Image-Based Assay - Set 3. [Related pubchem assays (depositor defined):AID1777, AID1785, AID1786, AID1966, AID2133, AID2136, AID2284, AID2285, AID2420]; assay type: functional
Sequence of Mu-type opioid receptor (P35372 whole entry): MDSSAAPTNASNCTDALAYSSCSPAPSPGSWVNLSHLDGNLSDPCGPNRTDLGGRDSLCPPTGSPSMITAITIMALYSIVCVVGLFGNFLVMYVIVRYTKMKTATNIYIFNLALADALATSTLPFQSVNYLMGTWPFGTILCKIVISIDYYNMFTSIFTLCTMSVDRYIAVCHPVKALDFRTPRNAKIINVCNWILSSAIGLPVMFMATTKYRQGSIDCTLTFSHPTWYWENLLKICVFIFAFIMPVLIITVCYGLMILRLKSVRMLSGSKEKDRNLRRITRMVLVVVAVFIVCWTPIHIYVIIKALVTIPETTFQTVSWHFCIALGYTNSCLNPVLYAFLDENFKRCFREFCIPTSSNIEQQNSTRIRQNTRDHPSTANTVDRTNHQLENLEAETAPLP

[16] = target: Delta-type opioid receptor (Homo sapiens, UniProt P41143); assay: SAR Analysis of Antagonists of the DOR Receptor using an Image-Based Assay - Set 3. [Related pubchem assays (depositor defined):AID1777, AID1785]; assay type: functional;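 note: U2OS cells expressing DOR1 and beta-arrestin GFP stimulated with 100 nM SNC80; imaging of GFP-tagged beta-arrestin moving into spots after receptor activation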
Sequence of Delta-type opioid receptor (P41143 whole entry): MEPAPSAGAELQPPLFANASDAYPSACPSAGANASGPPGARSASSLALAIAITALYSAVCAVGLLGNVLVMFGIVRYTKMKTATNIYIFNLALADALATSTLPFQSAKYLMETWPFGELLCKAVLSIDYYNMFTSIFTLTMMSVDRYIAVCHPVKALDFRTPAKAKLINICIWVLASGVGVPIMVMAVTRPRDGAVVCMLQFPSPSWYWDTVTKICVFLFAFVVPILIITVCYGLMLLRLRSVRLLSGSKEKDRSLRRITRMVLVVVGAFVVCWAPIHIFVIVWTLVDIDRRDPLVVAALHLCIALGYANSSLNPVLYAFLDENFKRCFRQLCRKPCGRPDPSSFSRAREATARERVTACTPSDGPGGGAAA

SMILES: COc1ccc(C2=NOC(C(=O)NCc3cccs3)C2)cc1OC (stereo unspecified)
IC50 [1]: > 80 µM (inactive)
CC50 [2]: > 40 µM (active)
IC50 [3]: 0.609 µM (active)

EC50 [4]: > 71.5 µM (inactive)
SMILES: Cc1nnc(SCC(=O)NC(C)(C)C)n1C1CCCCC1

SMILES: O=C(O)c1cc(O)c2c(c1)[C@H]([C@H]1c3cc(C(=O)O)cc(O)c3C(=O)c3c(O[C@@H]4O[C@H](CO)[C@@H](O)[C@H](O)[C@H]4O)cccc31)c1cccc(OC3O[C@H](CO)[C@@H](O)[C@H](O)[C@H]3O)c1C2=O (stereo partly specified)
IC50 [5]: > 23.2 µM (inactive)
EC50 [6]: 7.25 µM (active)
IC50 [7]: 109 µM (inactive)
IC50 [8]: > 128 µM (inactive)
IC50 [9]: 18.8 µM (inactive)
IC50 [10]: 2.72 µM (active)
IC50 [11]: 30.4 µM (inactive)
EC50 [12]: > 300 µM (not active)

IC50 [13]: 0.776 µM (active)
IC50 [14]: 4.23 µM (active)
IC50 [15]: > 32 µM (inactive)
IC50 [16]: > 32 µM (inactive)
SMILES: O=C(Cn1c(=O)c2cccn2c2cccnc21)NCCCN1CCN(c2ccc3c(c2)OCO3)CC1
